Read-outs that look alike come from different tables or passages of the source. Starred links: 1 amine or outer side, 2 acyl side, 3 side chain; linkers in the order of their positions; H or OH if unused. Non-standard residues stand in square brackets, D forms with d. Residues, ends and D or L forms follow the SMILES beside them. Groups on a side chain read outwards from the residue. *: point of attachment. C20 diacid = O=C(O)CCCCCCCCCCCCCCCCCCC(=O)*; γGlu = O=C(O)[C@H](CCC(=O)[*:2])N[*:1]; NMeI = CC[C@H](C)[C@H](NC)C(=O)O; Nle = CCCC[C@H](N)C(=O)O; AEEA = NCCOCCOCC(=O)O; Aib = CC(C)(N)C(=O)O

The target in one test is T1, hCRHR2 (Homo sapiens, UniProt Q13324).
T1 sequence (Q13324 1-411): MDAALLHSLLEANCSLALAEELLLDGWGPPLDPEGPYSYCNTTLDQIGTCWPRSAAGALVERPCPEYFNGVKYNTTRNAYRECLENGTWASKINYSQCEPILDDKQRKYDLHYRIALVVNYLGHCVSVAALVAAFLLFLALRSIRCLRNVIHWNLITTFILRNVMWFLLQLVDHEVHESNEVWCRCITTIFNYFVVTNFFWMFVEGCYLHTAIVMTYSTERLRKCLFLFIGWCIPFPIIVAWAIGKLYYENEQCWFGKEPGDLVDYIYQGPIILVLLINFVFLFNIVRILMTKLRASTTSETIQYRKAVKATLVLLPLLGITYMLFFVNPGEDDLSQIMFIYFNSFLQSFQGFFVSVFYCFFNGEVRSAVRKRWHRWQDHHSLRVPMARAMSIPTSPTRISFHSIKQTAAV
The test can be described thus: HTRF cAMP assay, determination of hCRHR2 potency (peptide libraries 5 conc., purified peptides 11 conc.). Format: cell-based. The conditions noted are these: read-out: hCRHR2 pEC50 (converted). In a few lines:
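Potency was read as cAMP accumulation in a stable CHO-K1 line expressing human CRHR2, used in suspension right after thawing. Detection relied on energy transfer from antibody-bound cryptate to d2-cAMP.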
(Time-resolved FRET reads energy transfer from a long-lived donor to a nearby acceptor.)

In the next test the target is T2, hCRHR1 (Homo sapiens, UniProt P34998).
T2 sequence (P34998 24-415): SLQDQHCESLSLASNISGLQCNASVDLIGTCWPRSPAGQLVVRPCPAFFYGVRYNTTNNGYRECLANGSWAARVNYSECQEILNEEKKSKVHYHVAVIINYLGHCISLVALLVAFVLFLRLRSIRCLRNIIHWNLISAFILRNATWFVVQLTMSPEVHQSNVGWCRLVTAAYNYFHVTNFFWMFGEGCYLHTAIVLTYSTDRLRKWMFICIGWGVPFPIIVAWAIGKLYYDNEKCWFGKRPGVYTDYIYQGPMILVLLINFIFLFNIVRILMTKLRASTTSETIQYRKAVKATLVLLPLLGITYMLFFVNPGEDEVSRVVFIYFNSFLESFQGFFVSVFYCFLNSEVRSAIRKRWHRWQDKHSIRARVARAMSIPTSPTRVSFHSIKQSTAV
Briefly: HTRF cAMP assay, determination of hCRHR1 potency (peptide libraries 5 conc., purified peptides 11 conc.). In kind it is cell-based. The conditions noted are these: read-out: hCRHR1 pEC50 (converted). In a few lines:
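CHO-K1 cells stably expressing human CRHR1, thawed from frozen stocks just before use, were stimulated in suspension with agonist peptides. cAMP was measured by HTRF competitive immunoassay (cryptate anti-cAMP antibody vs d2-cAMP).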

[1] abbreviates: Table 3, matched molecular pairs X^38 L vs Nle, peptide library of Example 4.
Where [2] appears, read: Table 4, library peptides having X^38 = Nle.

For `CC[C@H](C)[C@H](N)C(=O)N[C@H](C(=O)N[C@@H](CC(C)C)C(=O)N[C@@H](CO)C(=O)N[C@@H](CC(C)C)C(=O)N[C@@H](CC(=O)O)C(=O)N[C@H](C(=O)N1CCC[C@H]1C(=O)N[C@H](C(=O)NCC(=O)N[C@@H](CC(C)C)C(=O)N[C@@H](CC(C)C)C(=O)N[C@@H](CCC(N)=O)C(=O)N[C@H](C(=O)N[C@@H](CC(C)C)C(=O)N[C@@H](CC(C)C)C(=O)N[C@@H](CCC(=O)O)C(=O)N[C@@H](CCC(N)=O)C(=O)N[C@@H](C)C(=O)N[C@@H](CCCNC(=N)N)C(=O)N[C@@H](C)C(=O)N[C@@H](CCC(=O)O)C(=O)N[C@@H](CO)C(=O)N[C@@H](C)C(=O)N[C@@H](CCCNC(=N)N)C(=O)N[C@@H](CCC(=O)O)C(=O)N[C@@H](CCC(N)=O)C(=O)N[C@@H](C)C(=O)N[C@@H](CCCCNC(=O)COCCOCCNC(=O)COCCOCCNC(=O)CC[C@H](NC(=O)CC[C@H](NC(=O)CCCCCCCCCCCCCCCCCCC(=O)O)C(=O)O)C(=O)O)C(=O)N[C@H](C(=O)N[C@@H](CC(N)=O)C(=O)N[C@@H](C)C(=O)N[C@@H](CCC(=O)O)C(=O)N[C@H](C(=O)N[C@@H](CC(C)C)C(=O)N[C@@H](C)C(=O)N[C@@H](CCC(=O)O)C(=O)N[C@H](C(N)=O)C(C)C)[C@@H](C)CC)[C@@H](C)O)[C@@H](C)CC)[C@@H](C)CC)C(C)C)C(C)C` [SEQ ID NO: 41] (H-IVLSLDVPIGLLQILLEQARAESAREQAK([AEEA-AEEA-γGlu-γGlu-C20 diacid])TNAEILAEV-NH2), the EC50 at hCRHR2 (setting [1]) is 0.631 nM; on hCRHR1 (setting [1]), 15.8 µM.
On the same counts, the results for `CCCC[C@H](NC(=O)[C@@H](NC(=O)[C@H](CCC(=O)O)NC(=O)[C@H](C)NC(=O)[C@H](CC(N)=O)NC(=O)[C@@H](NC(=O)[C@H](CCCCNC(=O)COCCOCCNC(=O)COCCOCCNC(=O)CC[C@H](NC(=O)CC[C@H](NC(=O)CCCCCCCCCCCCCCCCCCC(=O)O)C(=O)O)C(=O)O)NC(=O)[C@H](C)NC(=O)[C@H](CCC(N)=O)NC(=O)[C@H](CCC(=O)O)NC(=O)[C@H](CCCNC(=N)N)NC(=O)[C@H](C)NC(=O)[C@H](C)NC(=O)[C@H](CCC(=O)O)NC(=O)[C@H](C)NC(=O)[C@H](CCCNC(=N)N)NC(=O)[C@H](C)NC(=O)[C@H](CCC(N)=O)NC(=O)[C@H](CCC(=O)O)NC(=O)[C@H](CC(C)C)NC(=O)[C@H](CC(C)C)NC(=O)[C@@H](NC(=O)[C@H](CCC(N)=O)NC(=O)[C@H](CC(C)C)NC(=O)[C@H](CC(C)C)NC(=O)CNC(=O)[C@@H](NC(=O)[C@@H]1CCCN1C(=O)[C@@H](NC(=O)[C@H](CC(=O)O)NC(=O)[C@H](CC(C)C)NC(=O)[C@H](CO)NC(=O)[C@H](CC(C)C)NC(=O)[C@@H](NC(=O)[C@@H](N)[C@@H](C)CC)C(C)C)C(C)C)[C@@H](C)CC)[C@@H](C)CC)[C@@H](C)O)[C@@H](C)CC)C(=O)N[C@@H](C)C(=O)N[C@@H](CCC(=O)O)C(=O)N[C@H](C(N)=O)[C@@H](C)CC` [SEQ ID NO: 24] (H-IVLSLDVPIGLLQILLEQARAEAAREQAK([AEEA-AEEA-γGlu-γGlu-C20 diacid])TNAEI[Nle]AEI-NH2) are 0.398 nM and 1 µM.
Regarding `CCCC[C@H](NC(=O)[C@@H](NC(=O)[C@H](CCC(=O)O)NC(=O)C(C)(C)NC(=O)[C@H](CC(N)=O)NC(=O)[C@@H](NC(=O)[C@H](CCCCNC(=O)COCCOCCNC(=O)COCCOCCNC(=O)CC[C@H](NC(=O)CC[C@H](NC(=O)CCCCCCCCCCCCCCCCCCC(=O)O)C(=O)O)C(=O)O)NC(=O)[C@H](C)NC(=O)[C@H](CCC(N)=O)NC(=O)[C@H](CCC(=O)O)NC(=O)[C@H](CCCNC(=N)N)NC(=O)[C@H](C)NC(=O)[C@H](C)NC(=O)[C@H](CCCNC(=N)N)NC(=O)[C@H](C)NC(=O)[C@H](CCCNC(=N)N)NC(=O)[C@H](C)NC(=O)[C@H](CCC(N)=O)NC(=O)[C@H](Cc1ccccc1)NC(=O)[C@H](CC(C)C)NC(=O)[C@H](CC(C)C)NC(=O)[C@@H](NC(=O)[C@H](CCC(N)=O)NC(=O)[C@H](CC(C)C)NC(=O)[C@H](CC(C)C)NC(=O)CNC(=O)[C@@H](NC(=O)[C@@H]1CCCN1C(=O)[C@@H](NC(=O)[C@H](CC(=O)O)NC(=O)[C@H](CC(C)C)NC(=O)[C@H](CO)NC(=O)[C@H](CC(C)C)NC(=O)[C@@H](NC(=O)[C@@H](NC)[C@@H](C)CC)C(C)C)C(C)C)[C@@H](C)CC)[C@@H](C)CC)[C@@H](C)O)[C@@H](C)CC)C(=O)N[C@@H](C)C(=O)N[C@@H](CCC(=O)O)C(=O)N[C@H](C(N)=O)C(C)C` [compound 211] (H-[NMeI]VLSLDVPIGLLQILLFQARARAAREQAK([AEEA-AEEA-γGlu-γGlu-C20 diacid])TN[Aib]EI[Nle]AEV-NH2), the EC50 on hCRHR2 (setting [2]) is 0.0251 nM; at hCRHR1 (setting [2]), 79.4 µM.
On to `CCCC[C@H](NC(=O)[C@@H](NC(=O)[C@H](CCC(=O)O)NC(=O)[C@H](C)NC(=O)[C@H](CC(N)=O)NC(=O)[C@@H](NC(=O)[C@H](CCCCNC(=O)COCCOCCNC(=O)COCCOCCNC(=O)CC[C@H](NC(=O)CC[C@H](NC(=O)CCCCCCCCCCCCCCCCCCC(=O)O)C(=O)O)C(=O)O)NC(=O)[C@H](C)NC(=O)[C@H](CCC(N)=O)NC(=O)[C@H](CCC(=O)O)NC(=O)[C@H](CCCNC(=N)N)NC(=O)[C@H](C)NC(=O)[C@H](CO)NC(=O)[C@H](CCCNC(=N)N)NC(=O)[C@H](C)NC(=O)[C@H](CCCNC(=N)N)NC(=O)[C@H](C)NC(=O)[C@H](CCC(N)=O)NC(=O)[C@H](CCC(=O)O)NC(=O)[C@H](CC(C)C)NC(=O)[C@H](CC(C)C)NC(=O)[C@@H](NC(=O)[C@H](CCC(N)=O)NC(=O)[C@H](CC(C)C)NC(=O)[C@H](CC(C)C)NC(=O)CNC(=O)[C@@H](NC(=O)[C@@H]1CCCN1C(=O)[C@@H](NC(=O)[C@H](CC(=O)O)NC(=O)[C@H](CC(C)C)NC(=O)[C@H](CO)NC(=O)[C@H](CC(C)C)NC(=O)[C@@H](NC(=O)[C@@H](N)[C@@H](C)CC)C(C)C)C(C)C)[C@@H](C)CC)[C@@H](C)CC)[C@@H](C)O)[C@@H](C)CC)C(=O)N[C@@H](C)C(=O)N[C@@H](CCC(=O)O)C(=O)N[C@H](C(N)=O)[C@@H](C)CC` [SEQ ID NO: 36] (H-IVLSLDVPIGLLQILLEQARARSAREQAK([AEEA-AEEA-γGlu-γGlu-C20 diacid])TNAEI[Nle]AEI-NH2), for which the EC50 on hCRHR2 (setting [1]) was 0.158 nM; on hCRHR1 (setting [1]), 5.01 µM.
For `CCCC[C@H](NC(=O)[C@@H](NC(=O)[C@H](CCC(=O)O)NC(=O)C(C)(C)NC(=O)[C@H](CC(N)=O)NC(=O)[C@@H](NC(=O)[C@H](CCCCNC(=O)COCCOCCNC(=O)COCCOCCNC(=O)CC[C@H](NC(=O)CC[C@H](NC(=O)CCCCCCCCCCCCCCCCCCC(=O)O)C(=O)O)C(=O)O)NC(=O)[C@H](C)NC(=O)[C@H](CCC(N)=O)NC(=O)[C@H](CCC(=O)O)NC(=O)[C@H](CCCNC(=N)N)NC(=O)[C@H](C)NC(=O)[C@H](C)NC(=O)[C@H](CCCNC(=N)N)NC(=O)[C@H](C)NC(=O)[C@H](CCCNC(=N)N)NC(=O)[C@H](C)NC(=O)[C@H](CCC(N)=O)NC(=O)[C@H](CCC(N)=O)NC(=O)[C@H](CC(C)C)NC(=O)[C@H](CC(C)C)NC(=O)[C@@H](NC(=O)[C@H](CCC(N)=O)NC(=O)[C@H](CC(C)C)NC(=O)[C@H](CC(C)C)NC(=O)CNC(=O)[C@@H](NC(=O)[C@@H]1CCCN1C(=O)[C@@H](NC(=O)[C@H](CC(=O)O)NC(=O)[C@H](CC(C)C)NC(=O)[C@H](CO)NC(=O)[C@H](CC(C)C)NC(=O)[C@@H](NC(=O)[C@@H](NC)[C@@H](C)CC)C(C)C)C(C)C)[C@@H](C)CC)[C@@H](C)CC)[C@@H](C)O)[C@@H](C)CC)C(=O)N[C@@H](C)C(=O)N[C@@H](CCC(=O)O)C(=O)N[C@H](C(N)=O)C(C)C` [compound 202] (H-[NMeI]VLSLDVPIGLLQILLQQARARAAREQAK([AEEA-AEEA-γGlu-γGlu-C20 diacid])TN[Aib]EI[Nle]AEV-NH2), the EC50 on hCRHR2 (setting [2]) is 0.0251 nM; at hCRHR1 (setting [2]), 0.794 µM.

The values are drawn from patent EP4810052A2, “HCRHR2 SELECTIVE POLYPEPTIDES” (Gubra A/S, priority 2023, dated 2026).
